Columns and labels:
Format in all cases: cell-based
SY5Y cells = experiment: Apoptosis assay (AnnexinV FITC staining after cisplatin or etoposide) in SY5Y cells; conditions: cisplatin 24 h post transfection, compared to control
Method: (§1) 24 hours post-transfection cells were treated with cisplatin (10 µM) or etoposide (1-100 μM), followed by staining with AnnexinV FITC (BD Biosciences). Cells showing FITC staining, loss of cell volume, loss of refractility, and membrane blebbing were scored as apoptotic. At least 500 cells were counted in each well.
as §1, with “μM)” for “µM)”, “([…]” for “(1-100”, “well. The data represent mean±S.D. from at least three independent experiments.” for “well.”

HeLa cells = experiment: Apoptosis assay (AnnexinV FITC staining after cisplatin or etoposide) in HeLa cells; conditions: cisplatin 24 h post transfection, compared to control miRNA
Method: as §1
as §1, with “μM)” for “µM)”, “([…]” for “(1-100”, “well. The data represent mean±S.D. from at least three independent experiments.” for “well.”

3′UTR of TGF-β = experiment: Renilla luciferase reporter with 3′UTR / mirLAT target site of TGF-β in SY5Y cells
Method: (§2) Cells were co-transfected with pCDNA or PstMlu (1 μg) and the respective reporter constructs (500 ng) along with pSV-βgal (10 ng). For induction of TGF-p signaling, 24 h following transfection the cells were treated with 10 ng/ml of recombinant TGF-β1 protein (R&D systems). Reporter activity was measured using a appropriate assay kits (promega).
(§3) SY5Y cells were maintained in RPMI medium with 10% fetal calf serum and antibiotics. HeLa cells were grown in DMEM medium supplemented with 5% fetal calf serum and antibiotics. Plasmids having the PstMlu fragment of LAT and its deletion mutant ΔSty have been described. GFP-shRNA pSilencer plasmid was a kind gift from Dr Kuan-Teh Jeang, NIH, USA. The SBE4-Luc construct was a kind gift from Dr Anita Roberts, NIH, USA. The pGL3-control and pSV-βgal plasmids were obtained from Promega. The pRL-TK vector was obtained from Dr Zissimos Mourelatos, University of Pennsylvannia, USA. […] Recombinants were scored for reversion of deletion in ΔSty resulting in virus which is genetically similar to wild type virus. […]
(§4) Cells were co-transfected with pCDNA or PstMlu (1 μg) and the respective reporter constructs (500 ng) along with pSV-βgal (100 ng). […] Luciferase activity was measured using a renilla or firefly Luciferase assay kit (promega). β-galactosidase activity was determined in all lysates (promega) according to manufacturer's instructions. […]

3′UTR of SMAD-3 = experiment: Renilla luciferase reporter with 3′UTR / mirLAT target site of SMAD-3 in SY5Y cells
Method: as §2, §3, §4

[1] = system: TGF-β/SMAD-dependent transcription; experiment: SBE4-Luc TGF-β responsive reporter assay in SY5Y cells; conditions: 10 ng/ml recombinant TGF-β1
Method: as §2
Cells were co-transfected with pCDNA or PstMlu (1 μg) and the respective reporter constructs (500 ng) along with pSV-βgal (100 ng). For induction of TGF-β signaling, 24 h following transfection the cells were treated with 10 ng/ml of recombinant TGF-β 1 protein (R&D systems) for 12-16 hours at 37° C. in serum free media. Cells were lysed using the reporter lysis buffer (promega). Luciferase activity was measured using a renilla or firefly Luciferase assay kit (promega). β-galactosidase activity was determined in all lysates (promega) according to manufacturer's instructions. The Luciferase activity in all samples was normalized to the amount of β-galactosidase activity.

SMAD-3 = SMAD-3 expression (RT-PCR, Western blot); conditions: SY5Y cells
Method: (§5) RNA was isolated using Trizol reagent (Invitrogen). RNA was reverse transcribed using Superscript II RT enzyme (Invitrogen). Northern blot analysis of 50-60 μg total RNA was done as described previously. Western blot analysis was performed on whole cell lysates using Dicer polyclonal antibody and β-actin antibody (Amersham). SMAD-3 and TGF-β receptor I antibodies were from Abcam.
(§6) RNA was isolated using Trizol reagent according to the manufacturer's instruction. RNA was reverse transcribed using Superscript II RT enzyme (Invitrogen). Dicer, TGF-β 1, SMAD-3, TGF-β receptor I and GAPDH cDNA were amplified using gene specific primers. Northern blot analysis of 50-60 μg total RNA was done. Radioactive probes were generated using Starfire oligonucleotide labeling system (IDT). Western blot analysis was performed on whole cell lysates using Dicer polyclonal antibody, a kind gift from Dr Ramin Shiekhattar, Wistar Institute, Philadelphia, USA and β-actin antibody (Amersham). SMAD-3 and TGF-β receptor I antibodies were from Abcam. […] Synthetic RNA molecule corresponding to the mirLAT pre-miRNA (Dhramacon) was radiolabelled by polynucleotide kinase reaction (Invitrogen), column purified and incubated with 2 U Recombinant Dicer enzyme (Stratagene) at 37° C. for 16 hours and analyzed by gel electrophoresis and exposure to a phosphor imager screen.

TGF-β = TGF-β expression (RT-PCR, latent TGF-β1 ELISpot); conditions: SY5Y cells
Method: as §5, §6

[2] = mutant target site that disrupts mirLAT binding
[3] = single copy of wild-type mirLAT target site

| Substance | cisplatin-induced apoptosis (percentage apoptosis) (SY5Y cells) | cisplatin-induced apoptosis (percentage apoptosis) (HeLa cells) | luciferase activity, mutant TGF-β target site construct (3′UTR of TGF-β; [2]) | reduction in luciferase activity, wild-type TGF-β target site construct (3′UTR of TGF-β; [3]) | luciferase activity, mutant SMAD-3 target site construct (3′UTR of SMAD-3; [2]) | reduction in luciferase activity, wild-type SMAD-3 target site construct (3′UTR of SMAD-3; [3]) | TGF-β mediated induction of SBE4-Luc reporter [1] | mRNA levels / expression of SMAD-3 (SMAD-3) | mRNA levels / expression of TGF-β (TGF-β) |
| --- | --- | --- | --- | --- | --- | --- | --- | --- | --- |
| 5′-GUGGCGGCCCGGCCCGGGGCCTT-3′ [mirLAT] | significant reduction in apoptosis | significant reduction in apoptosis | does not show any significant decrease in luciferase activity | up to 90% | does not show any significant decrease in luciferase activity | up to 90% | significant reduction in TGF-β mediated induction | – | – |
| GCACAUAAUAACUUGGACCTT (chemistry not given here) [SMAD-3 siRNA, siRNA directed against SMAD-3 (Ambion)] | confers resistance to apoptosis | – | – | – | – | – | – | inhibited | – |
| CCAACUAUUGCUUCAGCUCTT (chemistry not given here) [TGF-β siRNA, siRNA directed against TGF-β (Ambion)] | confers resistance to apoptosis | – | – | – | – | – | – | – | inhibited |

Reference: patent US20080069827A1, “miRNA of HSV-LAT and uses thereof” (priority 2006, published 2008)
